Results on 4 compounds are retold here after patent publication US12486259B2, “FXR agonist having pyrazine structure, and preparation method and use” (JIANGSU TASLY DIYI PHARMACEUTICAL CO., LTD., priority 2020, dated 2025).

Data set [1] has as its target T1, FXR (Homo sapiens, UniProt Q96RI1).
T1 construct: expressed in transfected cells
T1 sequence (Q96RI1 1-486): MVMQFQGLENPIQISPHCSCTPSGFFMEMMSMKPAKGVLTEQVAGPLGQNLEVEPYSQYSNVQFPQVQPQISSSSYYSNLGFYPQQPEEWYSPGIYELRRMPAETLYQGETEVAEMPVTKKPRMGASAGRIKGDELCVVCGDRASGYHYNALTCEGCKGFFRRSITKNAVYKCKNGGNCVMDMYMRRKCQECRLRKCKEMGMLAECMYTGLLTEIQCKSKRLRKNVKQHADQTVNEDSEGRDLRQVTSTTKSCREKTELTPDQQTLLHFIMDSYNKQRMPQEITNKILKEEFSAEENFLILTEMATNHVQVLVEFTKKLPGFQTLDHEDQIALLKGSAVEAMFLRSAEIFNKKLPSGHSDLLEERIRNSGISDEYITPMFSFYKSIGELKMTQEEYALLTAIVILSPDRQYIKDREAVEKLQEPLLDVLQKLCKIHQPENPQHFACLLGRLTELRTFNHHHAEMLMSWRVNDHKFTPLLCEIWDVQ
In words: Intracellular FXR-TR-FRET experiment (pBIND-FXR / pG5Luc dual luciferase). Type of data set: cell-based. The conditions noted are these: cellular level, 18 hours with compound. Here is the method: • 1. Cell culture: a, trypsinize dishes and seed cells are taken with appropriate density in 10 ml of complete […] at 37° C. b. Cells are incubated for 24 hours in 5% CO2 and humidified. • 2. Cell inoculation and transfection: FuGENE HD transfection reagent is used as a transfection reagent. • a. The transfection mixture is prepared according to the following procedure:
• b. The tube is tapped vigorously to mix the contents. The mixture is incubated at room temperature for 15 minutes. • c. Discs are trypsinized and cell density is determined. • d. The cytolymph is diluted to the desired volume at a density of 500,000 cells/ml (100 ul/well for 96-well plate). • e. The required volume of previously prepared transfection mixture is added to both cytolymph, and then 100 ul/well of cytolymph is dispensed onto the assay plate. • f. The assay plate is incubated under humidified conditions at 37° C., 5% CO2 for 24 hours. • 3. Compound preparation: • a. Compound stocks are prepared with a FXR working concentration of 10 mM and then diluted 3-fold in 100% DMSO. • b. 10 ul compound is added to 90 ul complete medium. • c. 5 ul compound solution is added to each well. • d. The plate is incubated at 37° C., 5% CO2 and humidified for 18 hours. • 4. Dual luciferase assay: the firefly and Renilla luciferase signals are analyzed by Dual Luciferase Reporter Assay System from Promega. Envision is used as a photometer. • 5. Result calculation: data values are normalized by dividing the firefly signal by the Renilla signal. “F/R” means “firefly/Renilla”. This normalization eliminates differences in different cell numbers and transfection efficiencies in each well. The % Activation value is calculated. The % Activation value is calculated by the following formula.
X is the “F/R” value for each concentration point. The minimum value is the average “F/R” value for the no compound control. The maximum value is the average “F/R” value of the reference compound control. • 6.
Background: Time-resolved FRET reads energy transfer from a long-lived donor to a nearby acceptor.

Data set [2] in a line: in vitro. The conditions noted are these: human; for efflux ratio: Caco-2; for Papp A→B: Caco-2, Papp A-B; for Papp B→A: Caco-2, Papp B-A. How it is done:
(§1) The bi-directional transport of target compounds from apical side (AP) to basolateral side (BL) and from BL side to AP side is studied by using human colon adenocarcinoma cell line Caco-2 monolayer model. The transport parameters, apparent permeability coefficient (Papp) and efflux ratio are calculated by quantitative analysis with high performance liquid chromatography (HPLC).
(Passage across Caco-2 layers is used to estimate intestinal permeability.)

Data set [3] relates to human colon adenocarcinoma cell line Caco-2 monolayer model. In words: in vitro. How it is done:
as §1

In data set [4] the target is T2, GST-labeled recombinant human FXR protein (Homo sapiens, UniProt Q96RI1).
T2 construct: purchased Invitroren (so in the source)
T2 sequence (Q96RI1 262-486 limits assumed): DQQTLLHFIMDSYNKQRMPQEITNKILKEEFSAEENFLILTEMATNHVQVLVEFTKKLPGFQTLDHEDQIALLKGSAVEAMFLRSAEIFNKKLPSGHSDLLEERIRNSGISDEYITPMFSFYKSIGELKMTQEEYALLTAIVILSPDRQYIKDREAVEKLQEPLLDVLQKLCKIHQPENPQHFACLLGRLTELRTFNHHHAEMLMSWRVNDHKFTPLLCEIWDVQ
T2 sequence (Q15788 676-700 partner limits assumed): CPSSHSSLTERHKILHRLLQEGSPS
The data set can be described thus: Agonistic activity on FXR receptor (GST-FXR / SRC-1 bead assay, protein level). Type of data set: biochemical. The following applies: 0.4 nM FXR, 30 nM SRC-1, protein level. Here is the method:
Experimental procedures: FXR (GST-labeled recombinant human FXR protein, manufacturer: Invitroren, Item number: PV4835) and SRC-1 (steroid receptor co-activator-1) are thawed on ice. Three solutions of ABC are prepared by a buffer solution, solution A, 0.4 n M FXR and 30 nM SRC-1; solution B, 10 ug/ml Acceptor Beads; solution C, 10 ug/ml Donor Beads. Solution A is added to the plate at 15 uL per well. It is incubated at room temperature for 1 hour. Solution B is added to the plate at 7.5 uL per well. It is incubated at room temperature for 1 hour. Solution C is added to the plate at 7.5 uL per well. It is incubated at room temperature for 1 hour. It is read from the microplate reader Envision. The data are curve fitted by using Prism 5.0 to calculate the EC50.

For data set [5] the following is noted: literature; cited from earlier work.
Setting [6] is: Caco-2, Recovery rate A-B, Average.
[7] abbreviates: Caco-2, Recovery rate A-B, Sample-01.
Setting [8] is: Caco-2, Recovery rate A-B, Sample-02.
[9] abbreviates: Caco-2 cell line (21 days), Table 5.

What is called EC50 is the concentration at which the effect is half-maximal. The term efflux ratio denotes the permeability from basolateral to apical divided by that in the opposite direction, in the common usage. The term Papp A→B denotes how fast a substance crosses the layer from the apical side. As a reminder, the Papp B→A is the apparent permeability from the basolateral to the apical side of a cell layer. As to `O=C(O)c1cccc(C2CC(O)(c3ccc(OCc4c(-c5c(Cl)cccc5Cl)noc4C4CC4)cc3Cl)C2)c1` (centres unmarked) [Compound M3, reference compound], the EC50 in data set [1] was determined as 1490 nM; in data set [4], 1090 nM. In addition, the efflux ratio in data set [2] is over 76.8. In addition, the Papp A→B in data set [2] is under 0.15 ×10⁻⁶ cm/s; in data set [2] (Average), under 0.15 ×10⁻⁶ cm/s; in data set [2] (Sample-01), under 0.16 ×10⁻⁶ cm/s; in data set [2] (Sample-02), under 0.14 ×10⁻⁶ cm/s. Moreover, the Papp B→A turned out to be 11.6 ×10⁻⁶ cm/s in data set [2], 11.6 ×10⁻⁶ cm/s in data set [2] (Average), 13.3 ×10⁻⁶ cm/s in data set [2] (Sample-01) and 9.96 ×10⁻⁶ cm/s in data set [2] (Sample-02). The recovery is under 21.8% in data set [2] (setting [6]); under 27.2% in data set [2] (setting [7]); under 16.4% in data set [2] (setting [8]); 36% in data set [2] (Caco-2, Recovery rate B-A, Average); 36.3% in data set [2] (Caco-2, Recovery rate B-A, Sample-01); 35.6% in data set [2] (Caco-2, Recovery rate B-A, Sample-02). In data set [3] (Caco-2), the “membrane permeation in Caco-2 (in words)” value is recorded as “poor permeation”. In addition, in data set [3] (human, Caco-2), the “Papp A-B, Average” value is on record as <0.15 10−6 cm/s.
With `C[C@H]1O[C@@H](O[C@H]2[C@@H](O)C[C@H](O[C@H]3[C@@H](O)C[C@H](O[C@H]4CC[C@@]5(C)[C@H](CC[C@@H]6[C@@H]5C[C@@H](O)[C@]5(C)[C@@H](C7=CC(=O)OC7)CC[C@]65O)C4)O[C@@H]3C)O[C@@H]2C)C[C@H](O)[C@@H]1O` [Digoxin, digoxin, reference compound], in data set [2], the efflux ratio is over 263. Besides, the apical-to-basolateral permeability (Papp A→B) in data set [2] (Average, Caco-2, A-B, Average (Table 3)) is under 0.04 ×10⁻⁶ cm/s; in data set [2] (setting [9]), under 0.04 ×10⁻⁶ cm/s; in data set [2] (Sample-01, Caco-2, A-B, Sample-01), under 0.05 ×10⁻⁶ cm/s; in data set [2] (Sample-02, Caco-2, A-B, Sample-02), under 0.04 ×10⁻⁶ cm/s. The Papp B→A in data set [2] (Average, Caco-2, B-A, Average (Table 3)) was found to be 11.6 ×10⁻⁶ cm/s; in data set [2] (setting [9]) it was 11.6 ×10⁻⁶ cm/s; in data set [2] (Sample-01, Caco-2, B-A, Sample-01), 11.7 ×10⁻⁶ cm/s; in data set [2] (Sample-02, Caco-2, B-A, Sample-02) it was 11.5 ×10⁻⁶ cm/s. Also, the recovery is under 87% in data set [2] (Caco-2, Recovery rate A-B, Average, Caco-2, A-B); under 85.2% in data set [2] (Caco-2, Recovery rate A-B, Sample-01, Caco-2, A-B, Sample-01); under 88.7% in data set [2] (Caco-2, Recovery rate A-B, Sample-02, Caco-2, A-B, Sample-02); 94.6% in data set [2] (Caco-2, Recovery rate B-A, Average, Caco-2, B-A); 93.7% in data set [2] (Caco-2, Recovery rate B-A, Sample-01, Caco-2, B-A, Sample-01); 95.4% in data set [2] (Caco-2, Recovery rate B-A, Sample-02, Caco-2, B-A, Sample-02). The “Papp A-B, Average” value in data set [3] (Caco-2, A-B, Average (Table 3)) was <0.04 10−6 cm/s. Besides, the “Efflux rate = Papp B-A/Papp A-B” value in data set [3] (Caco-2 cell line (21 days)) was over 262.93.
What is called t½ is the time needed for the level to fall by half in the phase considered. Regarding `CC(C)c1onc(-c2c(Cl)cccc2Cl)c1COc1ccc(/C=C/c2cccc(C(=O)O)c2)c(Cl)c1` [GW4064], in data set [5], the oral availability is reported as 10% and the t½ was 3.5 h.
With `Cc1cc(C(=O)O)cc(C2CC(O)(c3cnc(OCc4c(-c5c(Cl)cccc5Cl)noc4C4CC4)cn3)C2)c1` (centres unmarked) [TM-08, 3-(3-(5-((5-cyclopropyl-3-(2,6-dichlorophenyl)isoxazol-4-yl)methoxy)pyrazine-2-yl)-3-hydroxycyclobutyl)-5-methyl benzoic acid], the values for the EC50 in data set [1] and in data set [4] were 1510 nM and 240 nM, respectively. In data set [2], the efflux ratio is 16.9. Further, the Papp A→B in data set [2] was found to be 0.58 ×10⁻⁶ cm/s; in data set [2] (Average), 0.97 ×10⁻⁶ cm/s; in data set [2] (Sample-01), 1.01 ×10⁻⁶ cm/s; in data set [2] (Sample-02), 0.94 ×10⁻⁶ cm/s. In data set [2], this compound registered a basolateral-to-apical permeability (Papp B→A) of 9.89 ×10⁻⁶ cm/s. The recovery amounted to 99% in data set [2] (setting [6]), 99.6% in data set [2] (setting [7]) and 98.5% in data set [2] (setting [8]). Moreover, the “membrane permeation in Caco-2 (in words)” value in data set [3] (Caco-2) is “poor effect”.
